Measured values: PubChem BioAssay AID1963870 (Molecular Pharmacology Branch, DTP, NCI, 2024)

System: 292921-168-R-J2-PDC KRAS tumor spheroid viability
Assay: Anticancer human tumor 292921-168-R-J2-PDC patient-derived pancreatic carcinoma cell line growth inhibition [KRAS2]
Conditions: spheroids with HUVEC and MSC; for IC50: curve of first compound; for viability, T/C: stronger effect = lower value
Summary of the method: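 KRAS-mutant tumor cells were grown as spheroids with HUVEC endothelial cells and human MSCs as stroma. Targeted agents were tested alone and with KRAS pathway inhibitors. Doses started at or near clinical Cmax, or 10 microM, descending half-log.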

[1] = second compound 0.1 µM, first compound 0.000316 µM
[2] = second compound 0.1 µM, first compound 0.001 µM
[3] = second compound 0.1 µM, first compound 0.00316 µM
[4] = second compound 0.1 µM, first compound 0.01 µM
[5] = second compound 0.1 µM, first compound 0.0316 µM
[6] = second compound 0.316 µM, first compound 0.000316 µM
[7] = second compound 0.316 µM, first compound 0.001 µM
[8] = second compound 0.316 µM, first compound 0.00316 µM
[9] = second compound 0.316 µM, first compound 0.01 µM
[10] = second compound 0.316 µM, first compound 0.0316 µM
[11] = second compound 1 µM, first compound 0.000316 µM
[12] = second compound 1 µM, first compound 0.001 µM
[13] = second compound 1 µM, first compound 0.00316 µM
[14] = second compound 1 µM, first compound 0.01 µM
[15] = second compound 1 µM, first compound 0.0316 µM
[16] = second compound 3.16 µM, first compound 0.000316 µM
[17] = second compound 3.16 µM, first compound 0.001 µM
[18] = second compound 3.16 µM, first compound 0.00316 µM
[19] = second compound 3.16 µM, first compound 0.01 µM
[20] = second compound 3.16 µM, first compound 0.0316 µM
[21] = second compound 0.1 µM, first compound 0.1 µM
[22] = second compound 0.316 µM, first compound 0.1 µM
[23] = second compound 1 µM, first compound 0.1 µM
[24] = second compound 3.16 µM, first compound 0.1 µM
[25] = second compound 10 µM, first compound 0.00316 µM
[26] = second compound 10 µM, first compound 0.01 µM
[27] = second compound 10 µM, first compound 0.0316 µM
[28] = second compound 10 µM, first compound 0.1 µM
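Further: drug exposure lasted seven days after spheroids formed for three days.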
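Wherever viability, T/C is given: percent of DMSO vehicle control viability which is 100%.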

Row | Compound | IC50 (second compound 0.1 µM) [pM] | IC50 (second compound 0.316 µM) [pM] | IC50 (second compound 1 µM) [pM] | IC50 (second compound 3.16 µM) [pM] | viability, T/C [1] [%] | viability, T/C [2] [%] | viability, T/C [3] [%] | viability, T/C [4] [%] | viability, T/C [5] [%] | viability, T/C [6] [%] | viability, T/C [7] [%] | viability, T/C [8] [%] | viability, T/C [9] [%] | viability, T/C [10] [%] | viability, T/C [13] [%] | viability, T/C [14] [%] | viability, T/C [15] [%] | viability, T/C [18] [%] | viability, T/C [19] [%] | viability, T/C [20] [%] | further results
1 | CC(=O)Nc1cccc(-n2c(=O)n(C3CC3)c(=O)c3c(Nc4ccc(I)cc4F)n(C)c(=O)c(C)c32)c1 + C=CC(=O)N1CCN(c2nc(OCC3CCCN3C)nc3c2CCN(c2cccc4cccc(C)c24)C3)CC1CC#N | 238 | 145 | < 100 | < 100 | 45.9 | 29.1 | 17.6 | 12.4 | 7.9 | 36.5 | 23 | 13.5 | 10.3 | 7.06 | 9.17 | 6.87 | 5.25 | 0.27 | 0.11 | 0.17 | IC50 (second compound 0.0316 µM): 281 pM; viability, T/C (second compound 0.0316 µM, first compound 0.0001 µM): 78.2%; viability, T/C (second compound 0.0316 µM, first compound 0.000316 µM): 46.6%; viability, T/C (second compound 0.0316 µM, first compound 0.001 µM): 27.2%; viability, T/C (second compound 0.0316 µM, first compound 0.00316 µM): 18.6%; viability, T/C (second compound 0.0316 µM, first compound 0.01 µM): 11.9%; viability, T/C (second compound 0.0316 µM, first compound 0.0316 µM): 8.52%; viability, T/C (second compound 0.1 µM, first compound 0.0001 µM): 63.3%; viability, T/C (second compound 0.316 µM, first compound 0.0001 µM): 56.5%; viability, T/C (second compound 1 µM, first compound 0.0001 µM): 42.7%; viability, T/C [11]: 21.9%; viability, T/C [12]: 13.3%; viability, T/C (second compound 3.16 µM, first compound 0.0001 µM): 0.18%; viability, T/C [16]: 0.2%; viability, T/C [17]: 0.11%
2 | CCN1CCN(Cc2ccc(Nc3ncc(F)c(-c4cc(F)c5nc(C)n(C(C)C)c5c4)n3)nc2)CC1 + COc1cc2nc(C)nc(NC(C)c3cc(N)cc(C(F)(F)F)c3)c2cc1OC1CCOC1 | 20700 | 13200 | 9760 | 3280 |  |  | 74.7 | 60.1 | 42.2 |  |  | 67.4 | 54.1 | 39.2 | 60.7 | 49.7 | 40.3 | 51 | 35.6 | 30.8 | IC50 (second compound 10 µM): < 3160 pM; viability, T/C [21]: 36%; viability, T/C (second compound 0.1 µM, first compound 0.316 µM): 29.8%; viability, T/C (second compound 0.1 µM, first compound 1 µM): 22.2%; viability, T/C [22]: 32.8%; viability, T/C (second compound 0.316 µM, first compound 0.316 µM): 28.4%; viability, T/C (second compound 0.316 µM, first compound 1 µM): 22.1%; viability, T/C [23]: 30.8%; viability, T/C (second compound 1 µM, first compound 0.316 µM): 25.7%; viability, T/C (second compound 1 µM, first compound 1 µM): 21.3%; viability, T/C [24]: 22.9%; viability, T/C (second compound 3.16 µM, first compound 0.316 µM): 22%; viability, T/C (second compound 3.16 µM, first compound 1 µM): 18.6%; viability, T/C [25]: 22.8%; viability, T/C [26]: 15.9%; viability, T/C [27]: 14.7%; viability, T/C [28]: 14.8%; viability, T/C (second compound 10 µM, first compound 0.316 µM): 12.2%; viability, T/C (second compound 10 µM, first compound 1 µM): 0.58%
3 | Cn1ncnc1[C@H]1c2n[nH]c(=O)c3cc(F)cc(c23)N[C@@H]1c1ccc(F)cc1 + CC1OCC2(CCN(c3cnc(Sc4ccnc(N)c4Cl)c(N)n3)CC2)C1N | > 100000 | > 100000 | 634 | < 316 | 84.8 | 78.6 | 82.5 | 76.4 | 66.3 | 66.1 | 60.9 | 65 | 56 | 59.4 | 49.2 | 44.4 | 39.2 | 37.4 | 36.2 | 33.4 | IC50 (second compound 10 µM): < 316 pM; viability, T/C [21]: 58.2%; viability, T/C [22]: 51.9%; viability, T/C [11]: 48.7%; viability, T/C [12]: 51.7%; viability, T/C [23]: 39.1%; viability, T/C [16]: 40.8%; viability, T/C [17]: 39%; viability, T/C [24]: 30.8%; viability, T/C (second compound 10 µM, first compound 0.000316 µM): 34.5%; viability, T/C (second compound 10 µM, first compound 0.001 µM): 34.5%; viability, T/C [25]: 32%; viability, T/C [26]: 30.6%; viability, T/C [27]: 29.5%; viability, T/C [28]: 26.5%
